Here are results for 13 compounds from US20250282799A1, “SUBSTITUTED PYRIDO[4,3-d]PYRIMIDINES AS KRAS MODULATORS” (Alterome Therapeutics, Inc., priority 2023, published 2025).

One experiment deals with KRAS G12V dependent lung adenocarcinoma cell line, NCI-H441. The experiment can be described thus: Cellular pERK (Thr202/Tyr204) FRET/HTRF assay. It is filed as cell-based. The note with it: Homo sapiens, NCI-H441, cellular pERK (Thr202/Tyr204) HTRF, NCI-H441 cells. The procedure, abridged: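 NCI-H441, overnight plating → cpd 1 hr, 37 °C/5% CO2; DMSO neg ctrl. Lyse (phosphatase inhibitors), add donor/acceptor Abs, RT incubation, HTRF read. IC50 by curve fit.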
In general terms: TR-FRET usually uses a lanthanide donor and a delayed reading to cut background.
`[2H]C([2H])(Oc1nc(N2CCC=C[C@H]3[C@H](F)[C@H]32)c2cnc(-c3cc(N)cc4cc(F)c(F)c(C#C)c34)c(F)c2n1)[C@@]12CCCN1C[C@H](F)C2` [Example 94, 5-ethynyl-6,7-difluoro-4-(8-fluoro-4-((1S,7R,8S)-8-fluoro-2-azabicyclo[5.1.0]oct-5-en-2-yl)-2-(((2R,7aS)-2-fluorotetrahydro-1H-pyrrolizin-7a(5H)-yl)methoxy-d2)pyrido[4,3-d]pyrimidin-7-yl)naphthalen-2-amine]: the half-inhibitory concentration (IC50) (commonly the concentration that inhibits the measured activity by half) is less than 0.05 µM.

Compound `[2H]C([2H])(F)Oc1c(F)c(F)cc2cccc(-c3ncc4c(N5CCCC[C@H]6[C@H](F)[C@H]65)nc(OC([2H])([2H])[C@@]56CCCN5C[C@H](F)C6)nc4c3F)c12` [Example 95, 7-(6,7-difluoro-8-(fluoromethoxy-d2)naphthalen-1-yl)-8-fluoro-4-((1S,7R,8S)-8-fluoro-2-azabicyclo[5.1.0]octan-2-yl)-2-(((2R,7aS)-2-fluorotetrahydro-1H-pyrrolizin-7a(5H)-yl)methoxy-d2)pyrido[4,3-d]pyrimidine] came in with an IC50 of less than 0.05 µM. For the compound `[2H]C([2H])(Oc1nc(N2CCCC[C@H]3[C@H](F)[C@H]32)c2cnc(-c3cc(N)cc4c(F)cc(F)c(C#C)c34)c(F)c2n1)[C@@]12CCCN1C[C@H](F)C2` [Example 96, 5-ethynyl-6,8-difluoro-4-(8-fluoro-4-((1S,7R,8S)-8-fluoro-2-azabicyclo[5.1.0]octan-2-yl)-2-(((2R,7aS)-2-fluorotetrahydro-1H-pyrrolizin-7a(5H)-yl)methoxy-d2)pyrido[4,3-d]pyrimidin-7-yl)naphthalen-2-amine], the half-inhibitory concentration (IC50) is less than 0.05 µM.

Compound `[2H]C([2H])(Oc1nc(N2CCCC[C@H]3[C@H](F)[C@H]32)c2cnc(-c3cncc4ccc(F)c(C#C)c34)c(F)c2n1)[C@@]12CCCN1C[C@H](F)C2` [Example 97, 7-(5-Ethynyl-6-fluoroisoquinolin-4-yl)-8-fluoro-4-((1S,7R,8S)-8-fluoro-2-azabicyclo[5.1.0]octan-2-yl)-2-(((2R,7aS)-2-fluorotetrahydro-1H-pyrrolizin-7a(5H)-yl)methoxy-d2)pyrido[4,3-d]pyrimidine] had an IC50 of less than 0.05 µM.

The experiment is the same for the next values; noted with them: Homo sapiens, NCI-H441, pERK HTRF, NCI-H441 cells (KRAS G12V).
In the case of `[2H]C([2H])(F)Oc1c(F)ccc2cccc(-c3ncc4c(N5CCOC[C@H]6[C@H](F)[C@H]65)nc(OC([2H])([2H])[C@@]56CCCN5C[C@H](F)C6)nc4c3F)c12` [Example 80, (1S,7S,8S)-8-Fluoro-2-(8-fluoro-7-(7-fluoro-8-(fluoromethoxy-d2)naphthalen-1-yl)-2-(((2R,7aS)-2-fluorotetrahydro-1H-pyrrolizin-7a(5H)-yl)methoxy-d2)pyrido[4,3-d]pyrimidin-4-yl)-5-oxa-2-azabicyclo[5.1.0]octane], the IC50 was less than 0.05 µM. Still for that read-out and setting: for `[2H]C([2H])([2H])Oc1c(C#N)ccc2cc(N)cc(-c3ncc4c(N5CCOC[C@H]6[C@H](F)[C@H]65)nc(OC([2H])([2H])[C@@]56CCCN5C[C@H](F)C6)nc4c3F)c12` [Example 81, 6-Amino-8-(8-fluoro-4-((1S,7S,8S)-8-fluoro-5-oxa-2-azabicyclo[5.1.0]octan-2-yl)-2-(((2R,7aS)-2-fluorotetrahydro-1H-pyrrolizin-7a(5H)-yl)methoxy-d2)pyrido[4,3-d]pyrimidin-7-yl)-1-(methoxy-d3)-2-naphthonitrile] the value was less than 0.05 µM; for `[2H]C([2H])(Oc1nc(N2CCCC[C@H]3[C@H](F)[C@H]32)c2cnc(-c3cncc4cc(F)c(F)c(OC)c34)c(F)c2n1)[C@@]12CCCN1C[C@H](F)C2` [Example 83, 7-(6,7-Difluoro-5-methoxyisoquinolin-4-yl)-8-fluoro-4-((1S,7R,8S)-8-fluoro-2-azabicyclo[5.1.0]octan-2-yl)-2-(((2R,7aS)-2-fluorotetrahydro-1H-pyrrolizin-7a(5H)-yl)methoxy-d2)pyrido[4,3-d]pyrimidine], 0.05 to 0.5 µM. In turn, `[2H]C([2H])(Oc1nc(N2CCCC[C@H]3[C@H](F)[C@H]32)c2cnc(-c3cncc4ccc(F)c(Cl)c34)c(F)c2n1)[C@@]12CCCN1C[C@H](F)C2` [Example 85, 7-(5-Chloro-6-fluoroisoquinolin-4-yl)-8-fluoro-4-((1S,7R,8S)-8-fluoro-2-azabicyclo[5.1.0]octan-2-yl)-2-(((2R,7aS)-2-fluorotetrahydro-1H-pyrrolizin-7a(5H)-yl)methoxy-d2)pyrido[4,3-d]pyrimidine] yielded a half-maximal inhibitory concentration (IC50) of 0.05 to 0.5 µM. Compound `[2H]C([2H])([2H])Oc1c(F)ccc2cccc(-c3ncc4c(N5CCCO[C@H]6[C@H](F)[C@H]65)nc(OC([2H])([2H])[C@@]56CCCN5C[C@H](F)C6)nc4c3F)c12` [Example 86, (1R,7S,8R)-8-Fluoro-6-(8-fluoro-7-(7-fluoro-8-(methoxy-d3)naphthalen-1-yl)-2-(((2R,7aS)-2-fluorotetrahydro-1H-pyrrolizin-7a(5H)-yl)methoxy-d2)pyrido[4,3-d]pyrimidin-4-yl)-2-oxa-6-azabicyclo[5.1.0]octane] yielded an IC50 of less than 0.05 µM.

For `[2H]C([2H])(F)Oc1c(F)c(F)cc2cc(N)cc(-c3ncc4c(N5CCOC[C@H]6[C@H](F)[C@H]65)nc(OC([2H])([2H])[C@@]56CCCN5C[C@H](F)C6)nc4c3F)c12` [Example 88, 6,7-Difluoro-4-(8-fluoro-4-((1S,7S,8S)-8-fluoro-5-oxa-2-azabicyclo[5.1.0]octan-2-yl)-2-(((2R,7aS)-2-fluorotetrahydro-1H-pyrrolizin-7a(5H)-yl)methoxy-d2)pyrido[4,3-d]pyrimidin-7-yl)-5-(fluoromethoxy-d2)naphthalen-2-amine], the IC50 was less than 0.05 µM. `[2H]C([2H])(Oc1nc(N2CCCO[C@H]3[C@H](F)[C@H]32)c2cnc(-c3cccc4ccc(F)c(OCF)c34)c(F)c2n1)[C@@]12CCCN1C[C@H](F)C2` [Example 92, (1R,7S,8R)-8-Fluoro-6-(8-fluoro-7-(7-fluoro-8-(fluoromethoxy)naphthalen-1-yl)-2-(((2R,7aS)-2-fluorotetrahydro-1H-pyrrolizin-7a(5H)-yl)methoxy-d2)pyrido[4,3-d]pyrimidin-4-yl)-2-oxa-6-azabicyclo[5.1.0]octane] showed an IC50 of less than 0.05 µM. The same measure, in the same setting: for `[2H]C([2H])(Oc1nc(N2CCOC[C@H]3[C@H](F)[C@H]32)c2cnc(-c3cc(N)cc4c(F)c(F)c(F)c(C#C)c34)c(F)c2n1)[C@@]12CCCN1C[C@H](F)C2` [Example 93, 5-Ethynyl-6,7,8-trifluoro-4-(8-fluoro-4-((1S,7S,8S)-8-fluoro-5-oxa-2-azabicyclo[5.1.0]octan-2-yl)-2-(((2R,7aS)-2-fluorotetrahydro-1H-pyrrolizin-7a(5H)-yl)methoxy-d2)pyrido[4,3-d]pyrimidin-7-yl)naphthalen-2-amine] the value was less than 0.05 µM.

The experiment is the same for the next values; noted with them: Homo sapiens; pERK HTRF, NCI-H441 cells (KRAS G12V).
For `[2H]C([2H])([2H])Oc1c(F)ccc2cncc(-c3ncc4c(N5CCOC[C@H]6[C@H](F)[C@H]65)nc(OC([2H])([2H])[C@@]56CCCN5C[C@H](F)C6)nc4c3F)c12` [Example 84, (1S,7S,8S)-8-Fluoro-2-(8-fluoro-7-(6-fluoro-5-(methoxy-d3)isoquinolin-4-yl)-2-(((2R,7aS)-2-fluorotetrahydro-1H-pyrrolizin-7a(5H)-yl)methoxy-d2)pyrido[4,3-d]pyrimidin-4-yl)-5-oxa-2-azabicyclo[5.1.0]octane], the IC50 was less than 0.05 µM.
